US20090076168A1, “AMINE-BASED AND IMINE-BASED POLYMERS, USES AND PREPARATION THEREOF” (priority 2005, published 2009)

Test system: skin
Conditions: guaranine 50 mg/mL, 1-2 mL solution or gel/100 cm^2 of skin, young subjects, compared to untreated subjects
Protocol: Bioactive molecules can be added and the mixture stirred for 30 minutes to 2 hours according to their liposoluble or water-soluble nature. The addition of collagen or gelatin (1-10%), Polawax™ (1-10%), cetyl alcohol (1-10%), fatty acids (stearic or palmitique, 1-10%), Tween™ 20% and terpenoid (i.e. limonene) is optional.

For `Cn1c(=O)c2c(ncn2C)n(C)c1=O` [guaranine], which blood pressure is on record?
Its blood pressure is “considerable increase”.

What about the pulsations of the same molecule?
The pulsations was “considerable increase”.
